Measured values: patent EP4640674A1, “CRYSTAL FORMS OF ETHOXIMOD, PREPARATION METHOD THEREFOR AND USE THEREOF” (Jiankuan (Suzhou) Biotechnology Co., Ltd, priority 2022, dated 2024)
“Also recorded” adds a separate entry of the source.

Assays:
[1] = Dynamic vapor sorption (hygroscopicity); format: physicochemical; conditions: for hygroscopic weight gain (vapor sorption): 25 °C/90% RH; for hygroscopic weight gain (vapor sorption) / hygroscopicity / crystal form after the dynamic vapor sorption test (XRPD): hydrochloride; for hygroscopicity: DVS, 90% RH; for crystal form after the dynamic vapor sorption test (XRPD): after DVS test
From the text: In the examples of the present application, the instrument used for the X-ray powder diffraction test is the D2 Phaser produced by Bruker. The instrument used for the differential scanning calorimetry test is the differential scanning calorimeter DSC 250 produced by TA Instruments. The instrument used for the thermogravimetric analysis is the thermogravimetric analyzer TGA 55 produced by TA Instruments. The instrument used for the FT-IR test is the Fourier infrared spectrometer ID1-summit produced by Thermo. The instrument used for the dynamic vapor sorption test is the DVS Intrinsic produced by Surface Measurement Systems (SMS). The instrument used for the microscopy is the microscope NJF-120A produced by Suzhou Nanguang Electronic Technology Co., Ltd.
Samples of the crystal form A and the crystal form B of ethoximod were taken for a dynamic vapor sorption test.

[2] = Solid-state stability on storage (crystal form by XRPD, purity); format: physicochemical; conditions: for Crystal Form after storage / main purity after storage / maximum single impurity after storage: 30 days exposed; for main purity / maximum single impurity: before storage
Protocol: Samples were taken before and after storage, and crystal forms were measured through XRPD. […] Table 3 Comparison of solid-state stability of crystal form A and crystal form B

[3] = 40 °C/75% RH, 60 °C and 92.5% RH for 30 days
[4] = light for 30 days, hydrochloride

SMILES | hygroscopic weight gain (vapor sorption) [1] [%] | hygroscopicity [1] | crystal form after the dynamic vapor sorption test (XRPD) [1] | change in main purity [2, 3] | Crystal Form after storage ([2]; At 40 °C/75% RH, hydrochloride) | main purity after storage ([2]; At 40 °C/75% RH, hydrochloride) [A%] | maximum single impurity after storage ([2]; At 40 °C/75% RH, hydrochloride) | Crystal Form after storage ([2]; At 60 °C, hydrochloride) | main purity after storage ([2]; At 60 °C, hydrochloride) [A%] | maximum single impurity after storage ([2]; At 60 °C, hydrochloride) | Crystal Form after storage ([2]; At 92.5% RH, hydrochloride) | main purity after storage ([2]; At 92.5% RH, hydrochloride) [A%] | maximum single impurity after storage ([2]; At 92.5% RH, hydrochloride) | Crystal Form after storage ([2]; In light, hydrochloride) | main purity after storage ([2]; In light, hydrochloride) [A%] | maximum single impurity after storage ([2]; In light, hydrochloride) | main purity ([2]; hydrochloride) | maximum single impurity ([2]; hydrochloride) | change in main purity [2, 4] | also measured
CCc1nc(-c2ccc(-c3ccc(CCC(N)(CO)CO)cc3)cc2)co1.Cl [crystal form B, 2-amino-2-{2-(4'-(2-ethyloxazol-4-yl)-[1,1'-biphenyl]-4-yl)ethyl}-1,3-propylene glycol hydrochloride] | 4.6 | with hygroscopicity; also recorded: has hygroscopicity | crystal transformed into the crystal form C; also recorded: crystal transformed into a crystal form C | no significant change | crystal form C | 98.82 | maximum single impurity: 0.34 A% | crystal form B | 98.61 | maximum single impurity: 0.36 A% | crystal transformed into the crystal form C | 98.83 | maximum single impurity: 0.36 A% | crystal form B | 91.81 | maximum single impurity: 1.57 A% | crystal form B main purity: 98.85 A% | maximum single impurity: 0.33 A% | decreased to a certain extent | time the crystal form is stable (XRPD) ([2]; 60 °C and light): at least 30 days; crystal form after storage (XRPD) ([2]; placed for 5 days under 92.5% RH and 45 °C/75% RH): crystal transformed into the crystal form C
CCc1nc(-c2ccc(-c3ccc(CCC(N)(CO)CO)cc3)cc2)co1.Cl [crystal form A, 2-amino-2-{2-(4'-(2-ethyloxazol-4-yl)-[1,1'-biphenyl]-4-yl)ethyl}-1,3-propylene glycol hydrochloride] | 0.14 | no or almost no hygroscopicity | not subjected to crystal transformation | no significant change | crystal form A | 98.88 | 0.35 A% | crystal form A | 98.82 | maximum single impurity: 0.35 A% | crystal form A | 98.86 | maximum single impurity: 0.35 A% | crystal form A | 97.79 | maximum single impurity: 0.34 A% | 98.84 A% | 0.40 A% | slightly decreased | vapor sorption weight gain ([1]; 24.3 °C and 90% RH): 0.14%; time the crystal form is stable (XRPD) ([2]; 60 °C, 92.5% RH, light and 45 °C/75% RH): at least 30 days
